Assay [1] has as its system Septoria tritici. Nature of the assay: Test F: wheat leaf blotch, preventive spray on wheat seedlings, visual disease rating. Format: in vivo. Further details: Test F rating (disease control), value marked *: concentration or dose not given beside the values; pest or weed control: dose or concentration left out as unconfirmed. As to conditions: for pest or weed control / Test F rating (% disease control): preventive spray; for pest or weed control: other test suspension concentration than unmarked ratings; for Test F rating (% disease control): rating without asterisk. An excerpt:
(§1) A hyphen (-) indicates no test results.

The test system of assay [2] is Puccinia recondita f. sp. tritici. Put plainly: Test H: wheat leaf rust, preventive spray on wheat seedlings, visual disease rating. Conditions: for Test H rating (disease control) / Test H rating (% disease control): wheat leaf rust; for Test H rating (disease control): sprayed the day before inoculation; for pest or weed control at 40 µg/mL: read-out: Test H rating (% disease control), marked *, wheat leaf rust, preventive spray, rating marked with asterisk (*), other test suspension concentration than unmarked ratings; for Test H rating (% disease control): preventive spray, rating without asterisk.

Assay [3] has as its system Botrytis cinerea. Put plainly: Test A: tomato Botrytis, preventive spray on tomato seedlings, visual disease rating. Conditions: for Test A rating (disease control): tomato Botrytis, 100 = 100% disease control, 0 = no disease control relative to the controls; for pest or weed control at 40 µg/mL: Botrytis cinerea, in Solanum lycopersicum, read-out: Test A rating (% disease control), marked *, tomato Botrytis, preventive spray, rating marked with asterisk (*), other test suspension concentration than unmarked ratings.

The test system of assay [4] is Alternaria solani. Put plainly: Test B: tomato early blight, preventive spray on tomato seedlings, visual disease rating. Conditions: for Test B rating (disease control) / Test B rating (% disease control): tomato early blight, 100 = 100% disease control; for Test B rating (disease control): 0 = no disease control relative to the controls; for Test B rating (% disease control): preventive spray, rating without asterisk.

Assay [5] deals with Blumeria graminis f. sp. tritici. Nature of the assay: Test I: wheat powdery mildew, preventive spray on wheat seedlings, visual disease rating. Conditions: for Test I rating (disease control) / Test I rating (% disease control): wheat powdery mildew; for pest or weed control at 40 µg/mL: read-out: Test I rating (% disease control), marked *, wheat powdery mildew, preventive spray, rating marked with asterisk (*), other test suspension concentration than unmarked ratings; for Test I rating (% disease control): preventive spray, rating without asterisk.

Assay [6] has as its system Septoria nodorum. Nature of the assay: Test E: Septoria glume blotch, preventive spray on wheat seedlings, visual disease rating. As to conditions: for Test E rating (disease control): Septoria glume blotch; for Test E rating (% disease control), marked * / Test E rating (% disease control): Septoria glume blotch on wheat, preventive spray; for Test E rating (% disease control), marked *: rating marked with asterisk (*), other test suspension concentration than unmarked ratings; for Test E rating (% disease control): rating without asterisk.

In assay [7] the test system is Puccinia recondita f. sp. tritici. Nature of the assay: Test G: wheat leaf rust, spray after inoculation (curative) on wheat seedlings, visual disease rating. Format: in vivo. Conditions: 100 = 100% disease control; for Test G rating (% disease control): spray after inoculation, rating without asterisk.
Text: as §1

The mark [8] stands for this setting: 100 = 100% disease control, 0 = no disease control.
Where [9] appears, read: 100 = 100% disease control, 0 = no disease control relative to the controls.
Where [10] appears, read: Zymoseptoria tritici, rating marked with asterisk (*).
[11] abbreviates: Blumeria graminis, in Triticum aestivum.
Setting [12] is: sprayed after inoculation, 0 = no disease control.

Marks after values point to notes of the source that are not given here.

As to `COc1ccc(Oc2c(-c3ccc(F)cc3Cl)c(C)nn2C)c(F)c1` [compound 5], the “Test F rating (disease control), value marked *” value in assay [1] (rating marked with asterisk (*), other test condition, not explained in the text shown) is recorded as 97* %. The “Test H rating (disease control)” value in assay [2] (setting [8]) was 100%. The “Test A rating (disease control)” value in assay [3] amounted to 98%. In addition, the “Test B rating (disease control)” value in assay [4] was 100%. In assay [5] (setting [9]), the “Test I rating (disease control)” value is listed as 99%. Further, the “Test E rating (disease control)” value in assay [6] (setting [9]) was 97%.
Turning to `COc1ccc(-c2c(C)nn(C)c2Nc2c(C)cccc2Cl)c(F)c1` [Compound 257, N-(2-chloro-6-methylphenyl)-4-(2-fluoro-4-methoxyphenyl)-1,3-dimethyl-1H-pyrazol-5-amine], the pest or weed control in assay [1] (setting [10]) stood at 100%. Also, the pest or weed control at 40 µg/mL in assay [2] came out at 63%; in assay [3], 100%; in assay [5] (setting [11]), 27%. Moreover, the “Test E rating (% disease control), marked *” value in assay [6] is 31* %.
For the compound `Cc1nn(C)c(C(O)c2c(F)cc(F)cc2F)c1-c1ccc(F)cc1Cl` (racemic) [compound 178], in assay [7] (setting [12]), the “Test G rating (disease control)” value is 98%. Also, the “Test H rating (disease control)” value in assay [2] (setting [8]) is listed as 100%. Besides, the “Test A rating (disease control)” value in assay [3] stood at 100%. The “Test B rating (disease control)” value in assay [4] came out at 33%. The “Test I rating (disease control)” value in assay [5] (setting [9]) was 74%. Also, the “Test E rating (disease control)” value in assay [6] (setting [9]) is 0%.
Consider `COc1ccc(-c2c(C)nn(C)c2Nc2c(Cl)cc(F)cc2Cl)c(F)c1` [compound 194], for which, in assay [1] (100 = 100% disease control), the “Test F rating (% disease control)” value was found to be 100%. The “Test G rating (% disease control)” value in assay [7] amounted to 0%. Besides, the “Test H rating (% disease control)” value in assay [2] (100 = 100% disease control) was 95%. For the same compound, the “Test B rating (% disease control)” value in assay [4] is given as 93%. Further, the “Test I rating (% disease control)” value in assay [5] (100 = 100% disease control) is 63%. The “Test E rating (% disease control)” value in assay [6] (100 = 100% disease control) turned out to be 87%.
As for `Cc1nn(C)c(C(O)c2ccc(F)cc2Br)c1-c1ccc(F)cc1Cl` (stereo not drawn) [Compound 153, α-(2-bromo-4-fluorophenyl)-4-(2-chloro-4-fluorophenyl)-1,3-dimethyl-1H-pyrazole-5-methanol], the pest or weed control at 200 µg/mL in assay [1] (Zymoseptoria tritici, 100 = 100% disease control, 0 = no disease control relative to the controls) stood at 100%; in assay [7] (setting [12]), 0%; in assay [2] (read-out: Test H rating (disease control), wheat leaf rust, sprayed the day before inoculation, 100 = 100% disease control, 0 = no disease control) it was 96%; in assay [4] (Alternaria solani, in Solanum lycopersicum, read-out: Test B rating (disease control)), 0%; in assay [5] (Blumeria graminis, in Triticum aestivum, read-out: Test I rating (disease control), wheat powdery mildew, 100 = 100% disease control, 0 = no disease control relative to the controls), 0%; in assay [6] (Parastagonospora nodorum, in Triticum aestivum, read-out: Test E rating (disease control), Septoria glume blotch, 100 = 100% disease control, 0 = no disease control relative to the controls), 0%.
In the case of `COc1ccc(-c2c(C)nn(C)c2Nc2c(F)cccc2Cl)c(F)c1` [Compound 260, N-(2-chloro-6-fluorophenyl)-4-(2-fluoro-4-methoxyphenyl)-1,3-dimethyl-1H-pyrazol-5-amine], in assay [1] (setting [10]), the pest or weed control came to 100%. For the same compound, the results for the pest or weed control at 40 µg/mL in assay [2], in assay [3] and in assay [5] (setting [11]) were 85%, 100% and 90%, respectively. Besides, the “Test E rating (% disease control), marked *” value in assay [6] was 0* %.
In assay [1] (setting [10]), `COc1ccc(-c2c(C)nn(C)c2Nc2c(C)cccc2Br)c(F)c1` [Compound 258, N-(2-bromo-6-methylphenyl)-4-(2-fluoro-4-methoxyphenyl)-1,3-dimethyl-1H-pyrazol-5-amine] yielded a pest or weed control of 100%. The figures for the pest or weed control at 40 µg/mL in assay [2], in assay [3] and in assay [5] (setting [11]) were 9%, 100% and 0%, respectively. The “Test E rating (% disease control), marked *” value in assay [6] was 0* %.
`COc1ccc(-c2c(C)nn(C)c2C(O)c2c(F)cc(Cl)cc2F)c(Cl)c1` (racemic) [compound 224]: in assay [1] (100 = 100% disease control), the “Test F rating (% disease control)” value was 100%. The “Test G rating (% disease control)” value in assay [7] turned out to be 54%. The “Test H rating (% disease control)” value in assay [2] (100 = 100% disease control) was determined as 100%. Also, in assay [4], the “Test B rating (% disease control)” value stood at 100%. Besides, in assay [5] (100 = 100% disease control), the “Test I rating (% disease control)” value turned out to be 94%. In assay [6] (100 = 100% disease control), the “Test E rating (% disease control)” value is on record as 89%.

Source of the values: US20170150719A1, “FUNGICIDAL PYRAZOLES AND THEIR MIXTURES” (E I DU PONT DE NEMOURS AND COMPANY, priority 2010, published 2017).
